Experimental data taken from the supplement of paper PMC10307832.

Compound: CN(C)C(=N)NC(=N)N [Metformin] + C[C@@H](Oc1cc(-c2cnn(C3CCNCC3)c2)cnc1N)c1c(Cl)ccc(F)c1Cl [Crizotinib] (partner 1 µM)
Test: relative viability (nuclei count vs DMSO), 5 days (fraction); higher = more cells survive
Settings: first compound 10 µM
In short: (§1)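 Cells from lung cancer lines were seeded into 1536-well plates and, one day later, dosed by pin tool. Treatments were either a single drug or a fixed dose of an anchor drug with five library-drug doses (not always all listed) in √10 steps. After 5 days, nuclei were stained in a one-step fixation (final 0.05% Triton X-100, 1% formaldehyde, 1 ug/ml Hoechst) and counted on 4× images, and relative viability is the treated-to-vehicle nuclei ratio, as the median of duplicate plates.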

Cell Line | relative viability
COR-L23 | 0.564
COR-L 105 | 0.71
Calu-6 | 0.637
ChaGo-K-1 | 1.16
EBC-1 | 0.205
EKVX | 0.657
EMC-BAC-2 | 0.731
EPLC-272H | 1.07
H3255 | 0.754
HARA | 1.13
HCC-15 | 0.818
HCC-44 | 0.824
HCC-78 | 0.422
HCC-366 | 0.608
HOP-62 | 0.917
IA-LM | 0.76
LC-2-ad | 0.369
LCLC-97TM1 | 0.401
LCLC-103H | 1.13
LK-2 | 0.228
LOU-NH91 | 0.747
NCI-H441 | 0.337
NCI-H1299 | 0.98
NCI-H1650 | 0.961
NCI-H1703 | 0.989
NCI-H2170 | 1.09

Same assay, conditions: first compound 31.62 µM

Cell Line | relative viability
201T | 1.04
A549 | 0.531
A-427 | 1.17
ABC-1 | 1.3
BEN | 1.24
CAL-12T | 0.64
COR-L23 | 0.461
COR-L 105 | 0.841
Calu-6 | 0.755
ChaGo-K-1 | 1.07
EBC-1 | 0.154
EKVX | 0.896
EMC-BAC-2 | 0.8
EPLC-272H | 1.03
H3255 | 0.934
HARA | 1.09

Cell Line | relative viability
HCC-15 | 0.81
HCC-44 | 0.788
HCC-78 | 0.487
HCC-366 | 0.502
HCC-827 | 0.87
HOP-62 | 0.995
IA-LM | 0.944
LC-2-ad | 0.357
LCLC-97TM1 | 0.4
LCLC-103H | 1.19
LK-2 | 0.214
LOU-NH91 | 0.806
NCI-H1299 | 0.962
NCI-H1650 | 0.855
NCI-H1703 | 0.934
NCI-H2170 | 1.14

Same assay, conditions: first compound 100 µM

Cell Line | relative viability
201T | 1.07
A549 | 0.653
A-427 | 0.84
ABC-1 | 0.869
BEN | 1.15
CAL-12T | 0.552
COR-L23 | 0.483
COR-L 105 | 0.821
Calu-6 | 0.71
ChaGo-K-1 | 1.09
EBC-1 | 0.205
EKVX | 0.958
EMC-BAC-2 | 0.828
EPLC-272H | 0.874
H3255 | 0.809
HARA | 1.15

Cell Line | relative viability
HCC-15 | 0.889
HCC-44 | 0.785
HCC-78 | 0.498
HCC-366 | 0.532
HCC-827 | 0.903
HOP-62 | 1.11
LC-2-ad | 0.338
LCLC-97TM1 | 0.457
LCLC-103H | 1.11
LK-2 | 0.234
LOU-NH91 | 0.766
NCI-H441 | 0.638
NCI-H1299 | 0.975
NCI-H1650 | 1.04
NCI-H1703 | 0.66
NCI-H2170 | 1.19

Same assay, conditions: first compound 316.23 µM

Cell Line | relative viability
201T | 0.965
A549 | 0.723
A-427 | 0.926
ABC-1 | 0.447
BEN | 1.01
CAL-12T | 0.611
COR-L23 | 0.574
COR-L 105 | 0.745
Calu-6 | 0.691
ChaGo-K-1 | 1.13
EBC-1 | 0.173
EKVX | 0.716
EMC-BAC-2 | 0.702
EPLC-272H | 0.918
H3255 | 0.84
HARA | 1.01
HCC-15 | 0.8

Cell Line | relative viability
HCC-44 | 0.749
HCC-78 | 0.491
HCC-366 | 0.398
HCC-827 | 0.849
HOP-62 | 0.765
IA-LM | 0.926
LC-2-ad | 0.415
LCLC-97TM1 | 0.382
LCLC-103H | 1.1
LK-2 | 0.176
LOU-NH91 | 0.802
NCI-H441 | 0.457
NCI-H1299 | 0.972
NCI-H1650 | 0.877
NCI-H1703 | 0.679
NCI-H2170 | 1.02

Same assay, conditions: first compound 1000 µM

Cell Line | relative viability
201T | 1
A549 | 0.777
A-427 | 0.896
ABC-1 | 0.29
BEN | 1.13
CAL-12T | 0.521
COR-L23 | 0.639
COR-L 105 | 0.697
Calu-6 | 0.714
ChaGo-K-1 | 1.19
EBC-1 | 0.222
EKVX | 0.895
EMC-BAC-2 | 0.805
EPLC-272H | 1.06
H3255 | 0.384
HARA | 1.08
HCC-15 | 0.833

Cell Line | relative viability
HCC-44 | 0.776
HCC-78 | 0.529
HCC-366 | 0.709
HCC-827 | 0.888
HOP-62 | 0.917
IA-LM | 0.973
LC-2-ad | 0.378
LCLC-97TM1 | 0.543
LCLC-103H | 1.09
LK-2 | 0.245
LOU-NH91 | 0.847
NCI-H441 | 0.655
NCI-H1299 | 1.04
NCI-H1650 | 0.82
NCI-H1703 | 0.886
NCI-H2170 | 1.19

Compound: CN(C)C(=N)NC(=N)N [Metformin] + C[C@]1(O)C[C@@H](c2nc(-c3ccc4ccc(-c5ccccc5)nc4c3)c3c(N)nccn32)C1 [Linsitinib] (partner 1 µM)
Test: as above
Settings: first compound 10 µM
In short: as §1

Cell Line | relative viability
A549 | 0.647
A-427 | 1.09
BEN | 1.21
